Patent US20160303245A1, “FATTY ACID DERIVATIVES OF DIMERIC INHIBITORS OF PSD-95” (UNIVERSITY OF COPENHAGEN, priority 2013, published 2016)
“And” between values parts separate entries of the source, which are not always exact repeats. Equal entries are not always repeated. Where two headings read alike, the source gives them in different places.

How the values were obtained:
HSA = target: T1, HSA (Homo sapiens, UniProt P02768); assay: Transil XL HSA binding assay (immobilized HSA, unbound compound quantified by RP-HPLC)
T1 construct: purchased Sovicell GMBH, Leipzig, Germany
Protocol: The synthesized FA-linked dimeric ligands (1-12) were evaluated for their HSA affinity using a Transil^XL HSA binding assay kit (Sovicell GMBH, Leipzig, Germany). […] The assay kit consisted of prefilled wells with increasing concentrations of immobilized HSA as well as two control wells without HSA. The HSA had been immobilized in a random fashion to ensure that all binding sites on HSA were available. To conduct the assay, the wells were incubated with a known concentration of the tested compounds, and the unbound amount of compound was quantified using analytical RP-HPLC (C8 column). The fraction of unbound drug (fu) for each data point was calculated from the RP-HPLC data by comparison to a control sample without HSA. […] In eq. 1, it is assumed that the concentration of drug-bound HSA ([HSA-D]) is much lower than the total concentration of HSA in the well ([HSA-D]<<cHSA). The assay kit has been designed such that the assumption is valid for compounds where fu>1%. The calculated KD-values were used to calculate fb at physiological concentration of HSA (588 μM) using equation 2.

PSD-95 PDZ1-2 = PSD-95 PDZ1-2 (Homo sapiens, UniProt P78352); assay: In vitro fluorescence polarization (FP) competition binding assay, in TBS and modified with 1% HSA
Protocol: Affinity to PSD-95 was measured using an in vitro fluorescence polarization (FP) assay as described by Bach et al (PNAS USA, 2012, 109, 3317-3322). First, a saturation binding curve was obtained to determine KD values for the interaction between a dimeric fluorescent probe and PSD-95 PDZ1-2. Increasing concentrations of PDZ1-2 were added to a constant concentration (0.5 nM) of the probe. The fluorescence polarization of the samples was measured at excitation/emission wavelengths of 635/670 nm and the FP values were fitted to a one site binding model using the program GraphPad Prism. […] The FP values were fitted to a one site competition (variable slope) model in GraphPad Prism. The resulting IC50 were converted to competition inhibition constants, Ki values, as described (Nikolovska-Coleska et al, Anal Biochem, 2004, 332, 261-273). The modified FP assay was conducted as described above with 1% HSA in the assay. The synthesized FA-linked dimeric ligands were evaluated for their affinity to PSD-95 PDZ1-2 in the FP assay. […] We first measured the affinities using a simple tris-buffered saline (TBS) buffer (Table 2, FIG. 3A); but furthermore, we investigated if HSA influenced the ability of the FA-linked dimers to bind PSD95 PDZ1-2 by conducting the FP assay with HSA present in the assay buffer (Table 2, FIG. 3B). […] For a traditional small-molecule drug, it is commonly accepted that the unbound fraction of the drug is free to diffuse across membranes and exerts the physiological effect by interacting with its target (Berezhkovskiy et al, J Pharm Sci 2007, 96, 249-257). I.e. if the drug is bound to another molecule, then it cannot interact with the target at the same time.

[1] = FP in TBS with 1% HSA (~150 μM), mean ± SEM, n ≧ 3, read-out: Ki(PSD95) + HSA

T1 sequence (P02768 25-609): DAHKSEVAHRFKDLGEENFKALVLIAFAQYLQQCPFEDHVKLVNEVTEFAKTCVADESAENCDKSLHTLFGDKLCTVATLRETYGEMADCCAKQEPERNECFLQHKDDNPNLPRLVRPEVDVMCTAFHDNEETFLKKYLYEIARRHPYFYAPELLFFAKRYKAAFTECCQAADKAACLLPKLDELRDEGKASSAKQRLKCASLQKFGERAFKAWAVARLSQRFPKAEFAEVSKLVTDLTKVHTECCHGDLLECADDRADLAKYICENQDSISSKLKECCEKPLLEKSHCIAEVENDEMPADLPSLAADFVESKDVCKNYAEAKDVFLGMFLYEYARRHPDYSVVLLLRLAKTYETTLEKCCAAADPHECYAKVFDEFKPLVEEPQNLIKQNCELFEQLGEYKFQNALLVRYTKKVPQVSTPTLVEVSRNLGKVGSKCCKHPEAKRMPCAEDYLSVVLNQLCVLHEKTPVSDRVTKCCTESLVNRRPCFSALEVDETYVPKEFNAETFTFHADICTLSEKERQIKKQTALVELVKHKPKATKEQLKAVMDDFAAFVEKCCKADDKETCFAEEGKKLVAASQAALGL
Sequence of PSD-95 PDZ1-2 (P78352 61-249 limits assumed): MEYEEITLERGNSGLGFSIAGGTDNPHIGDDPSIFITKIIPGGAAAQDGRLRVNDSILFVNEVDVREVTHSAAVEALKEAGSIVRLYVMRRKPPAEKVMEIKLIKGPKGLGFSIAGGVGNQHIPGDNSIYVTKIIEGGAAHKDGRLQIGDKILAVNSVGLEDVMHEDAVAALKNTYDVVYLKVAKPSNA

fraction unbound (HSA)	other results	SMILES
0.186		CC[C@H](C)[C@H](NC(=O)CCOCCOCCN(CCOCCOCCC(=O)N[C@H](C(=O)N[C@@H](CCC(=O)O)C(=O)N[C@H](C(=O)N[C@@H](C)C(=O)N[C@H](C(=O)O)C(C)C)[C@@H](C)O)[C@@H](C)CC)C(=O)CC[C@H](NC(=O)CCCCCCCCCCCCCCCCC(=O)O)C(=O)O)C(=O)N[C@@H](CCC(=O)O)C(=O)N[C@H](C(=O)N[C@@H](C)C(=O)N[C@H](C(=O)O)C(C)C)[C@@H](C)O [Compound 8]
0.301		CC[C@H](C)[C@H](NC(=O)CCOCCOCCN(CCOCCOCCC(=O)N[C@H](C(=O)N[C@@H](CCC(=O)O)C(=O)N[C@H](C(=O)N[C@@H](C)C(=O)N[C@H](C(=O)O)C(C)C)[C@@H](C)O)[C@@H](C)CC)C(=O)CC[C@H](NC(=O)CCCCCCCCCCC(=O)O)C(=O)O)C(=O)N[C@@H](CCC(=O)O)C(=O)N[C@H](C(=O)N[C@@H](C)C(=O)N[C@H](C(=O)O)C(C)C)[C@@H](C)O [Compound 6]
	fb (%), HSA bound fraction (HSA; calculated from KD at physiological concentration of HSA (588 μM), equation 2): 65% and 65.3 ± 2.9%; fraction unbound (HSA; calculated from equation 2 at HSA concentration of 150 μM, read-out: fu (%), calculated fraction of unbound drug): 0.679; Kd (HSA; mean ± SEM, n = 3, read-out: KD(HSA)): 318 µM	CC[C@H](C)[C@H](NC(=O)CCOCCOCCN(CCOCCOCCC(=O)N[C@H](C(=O)N[C@@H](CCC(=O)O)C(=O)N[C@H](C(=O)N[C@@H](CC(=O)O)C(=O)N[C@H](C(=O)O)C(C)C)[C@@H](C)O)[C@@H](C)CC)C(=O)[C@H](CCCNC(=N)N)NC(=O)[C@H](CCCNC(=N)N)NC(=O)[C@H](CCCNC(=N)N)NC(=O)[C@H](CCC(N)=O)NC(=O)[C@H](CCCNC(=N)N)NC(=O)[C@H](CCCNC(=N)N)NC(=O)[C@H](CCCCN)NC(=O)[C@H](CCCCN)NC(=O)[C@H](CCCNC(=N)N)NC(=O)CNC(=O)[C@@H](N)Cc1ccc(O)cc1)C(=O)N[C@@H](CCC(=O)O)C(=O)N[C@H](C(=O)N[C@@H](CC(=O)O)C(=O)N[C@H](C(=O)O)C(C)C)[C@@H](C)O [UCCB01-144, reference compound]
0.271		CCCCCCCCCCCC(=O)NCCCCC(=O)N(CCOCCOCCC(=O)N[C@H](C(=O)N[C@@H](CCC(=O)O)C(=O)N[C@H](C(=O)N[C@@H](C)C(=O)N[C@H](C(=O)O)C(C)C)[C@@H](C)O)[C@@H](C)CC)CCOCCOCCC(=O)N[C@H](C(=O)N[C@@H](CCC(=O)O)C(=O)N[C@H](C(=O)N[C@@H](C)C(=O)N[C@H](C(=O)O)C(C)C)[C@@H](C)O)[C@@H](C)CC [Compound 9]
0.247		CC[C@H](C)[C@H](NC(=O)CCOCCOCCN(CCOCCOCCC(=O)N[C@H](C(=O)N[C@@H](CCC(=O)O)C(=O)N[C@H](C(=O)N[C@@H](C)C(=O)N[C@H](C(=O)O)C(C)C)[C@@H](C)O)[C@@H](C)CC)C(=O)CCCNC(=O)CCCCCCCCCCC(=O)O)C(=O)N[C@@H](CCC(=O)O)C(=O)N[C@H](C(=O)N[C@@H](C)C(=O)N[C@H](C(=O)O)C(C)C)[C@@H](C)O [Compound 2]
0.436	Kd (HSA): 116 ± 7.6 µM	CC[C@H](C)[C@H](NC(=O)CCOCCOCCN(CCOCCOCCC(=O)N[C@H](C(=O)N[C@@H](CCC(=O)O)C(=O)N[C@H](C(=O)N[C@@H](CC(=O)O)C(=O)N[C@H](C(=O)O)C(C)C)[C@@H](C)O)[C@@H](C)CC)C(=O)CCCNC(=O)CCCCCCCCCCCCCCCCC(=O)O)C(=O)N[C@@H](CCC(=O)O)C(=O)N[C@H](C(=O)N[C@@H](CC(=O)O)C(=O)N[C@H](C(=O)O)C(C)C)[C@@H](C)O [Compound 14]
0.083		CC[C@H](C)[C@H](NC(=O)CCOCCOCCN(CCOCCOCCC(=O)N[C@H](C(=O)N[C@@H](CCC(=O)O)C(=O)N[C@H](C(=O)N[C@@H](C)C(=O)N[C@H](C(=O)O)C(C)C)[C@@H](C)O)[C@@H](C)CC)C(=O)CCCCNC(=O)CCCCCCCCCCCCCCCCC(=O)O)C(=O)N[C@@H](CCC(=O)O)C(=O)N[C@H](C(=O)N[C@@H](C)C(=O)N[C@H](C(=O)O)C(C)C)[C@@H](C)O [Compound 12]
0.147		CCCCCCCCCCCC(=O)N[C@@H](CCC(=O)N(CCOCCOCCC(=O)N[C@H](C(=O)N[C@@H](CCC(=O)O)C(=O)N[C@H](C(=O)N[C@@H](C)C(=O)N[C@H](C(=O)O)C(C)C)[C@@H](C)O)[C@@H](C)CC)CCOCCOCCC(=O)N[C@H](C(=O)N[C@@H](CCC(=O)O)C(=O)N[C@H](C(=O)N[C@@H](C)C(=O)N[C@H](C(=O)O)C(C)C)[C@@H](C)O)[C@@H](C)CC)C(=O)O [Compound 5]
0.078	Ki (PSD-95 PDZ1-2; [1]): 1890 ± 100 nM	CCCCCCCCCCCCCCCCCC(=O)NCCCCC(=O)N(CCOCCOCCC(=O)N[C@H](C(=O)N[C@@H](CCC(=O)O)C(=O)N[C@H](C(=O)N[C@@H](C)C(=O)N[C@H](C(=O)O)C(C)C)[C@@H](C)O)[C@@H](C)CC)CCOCCOCCC(=O)N[C@H](C(=O)N[C@@H](CCC(=O)O)C(=O)N[C@H](C(=O)N[C@@H](C)C(=O)N[C@H](C(=O)O)C(C)C)[C@@H](C)O)[C@@H](C)CC [Compound 11]
0.615		CC[C@H](C)[C@H](NC(=O)CCOCCOCCN(CCOCCOCCC(=O)N[C@H](C(=O)N[C@@H](CCC(=O)O)C(=O)N[C@H](C(=O)N[C@@H](C)C(=O)N[C@H](C(=O)O)C(C)C)[C@@H](C)O)[C@@H](C)CC)C(=O)CCCCNC(=O)CCCCCCCCCCC(=O)O)C(=O)N[C@@H](CCC(=O)O)C(=O)N[C@H](C(=O)N[C@@H](C)C(=O)N[C@H](C(=O)O)C(C)C)[C@@H](C)O [Compound 10]
0.268	Kd (HSA): 55 ± 3.4 µM	CCCCCCCCCCCCCCCCCC(=O)N[C@@H](CCC(=O)N(CCOCCOCCC(=O)N[C@H](C(=O)N[C@@H](CCC(=O)O)C(=O)N[C@H](C(=O)N[C@@H](CC(=O)O)C(=O)N[C@H](C(=O)O)C(C)C)[C@@H](C)O)[C@@H](C)CC)CCOCCOCCC(=O)N[C@H](C(=O)N[C@@H](CCC(=O)O)C(=O)N[C@H](C(=O)N[C@@H](CC(=O)O)C(=O)N[C@H](C(=O)O)C(C)C)[C@@H](C)O)[C@@H](C)CC)C(=O)O [Compound 15]
0.031	Kd (HSA): 4.8 µM; Ki (PSD-95 PDZ1-2; FP data (TBS+HSA) corrected for calculated fu, read-out: Ki(PSD95), free ligand): 57.2 nM; Ki (PSD-95 PDZ1-2; [1]): 1890 ± 155 nM; Ki (PSD-95 PDZ1-2; FP in TBS, mean ± SEM, n ≧ 3, read-out: Ki(PSD95)): 11.1 nM	CCCCCCCCCCCCCCCCCC(=O)NCCCC(=O)N(CCOCCOCCC(=O)N[C@H](C(=O)N[C@@H](CCC(=O)O)C(=O)N[C@H](C(=O)N[C@@H](C)C(=O)N[C@H](C(=O)O)C(C)C)[C@@H](C)O)[C@@H](C)CC)CCOCCOCCC(=O)N[C@H](C(=O)N[C@@H](CCC(=O)O)C(=O)N[C@H](C(=O)N[C@@H](C)C(=O)N[C@H](C(=O)O)C(C)C)[C@@H](C)O)[C@@H](C)CC [Compound 3]
